These results are taken from patent US20240425867A1, “NUCLEIC ACID-BASED ASSEMBLY AND USES THEREOF” (Rheinische Friedrich-Wilhelms-Universität Bonn, priority 2016, published 2024).

Series [1] concerns the target T1, cMet (Homo sapiens, UniProt P08581).
T1 construct: cMet-Fc, which represents the ectodomain of cMet fused to the Fc domain of human IgG1 was purchased from R&D Systems; purchased R&D Systems
As to the kind of experiment: Competitive filter-binding assay against γ-32P-labeled trCLN3. Particulars: competition with γ-32P-trCLN3, cMet ~50 nM, competitor 1 μM-25 pM, 37° C. The protocol:
To test the effect of lipid-modification on trCLN3 binding properties, we determined IC50 values for each trCLN3 derivative by a competitive filter retention assay in which varying concentrations of unlabeled 5′-(1-dodecynyl)-functionalized trCLN3 aptamers competed with constant amounts of γ-^32P-labeled trCLN3 in binding to cMet. Two control experiments were also performed using unlabeled trCLN3 and its two point mutant variant trCLN3.mut as competitors.
First, the trCLN3 motif was 5′-end-labeled with γ-^32P ATP using T4 polynucleotide kinase. An aliquot of 20 μL solution containing 50 pmol trCLN3. 6.7 pmol γ-^32P ATP and 20 U T4 polynucleotide kinase in 1× polynucleotide kinase buffer (New England Biolabs) was incubated at 37° C. for 45 min. followed by removal of unreacted γ-^32P ATP using an Illustra G-25 microspin column (GE Healthcare. München, Germany). The purity of the radiolabeled aptamer was confirmed using a 10% PAGE-gel.
0.25 mg/ml BSA. 2 mM MgCl2 in 1×PBS, pH 7.4. […] Residual radioactivity due to cMet bound labeled aptamers was quantified using Fujifilm Fla-3000 PhosphorImager and AIDA software. The curves were fitted with GraphPadPrism 3.02 plotting non-linear regression curve and the IC50 values have been calculated assuming a competition for single binding site.

The nature of series [2]: TEM size of trCLN3-L4 nanoconstructs. The format is physicochemical. Particulars: negative stain electron microscopy. The protocol:
The size and structure of the trCLN3-L4 nanoconstructs were analyzed by negative stain electron microscopy. Samples were prepared using negative staining. In brief, carbon coated grids (Quantifoil Micro Tools GmbH, Jena, Germany, 200 mesh) were glow discharged to render the surface hydrophilic prior to applying samples. 10 μL of an aqueous solution of trCLN3-L4 were applied to the grid. Afterwards excess solution was carefully blotted off using filter paper followed by 3 times washing with ddH2O. In the final step, grids were stained with negative staining reagent by placing them (plastic side down) on a 10 μL drop of freshly prepared 2% […] uranyl formiate aqueous staining solution. TEM micrographs were recorded using a JEOL JEM 2200 FS electron microscope (JEOL, Japan) operated at 200 kV. The size of the micelles measured on the TEM images could typically be observed in a range between 20 and 25 nm.

Series [3] is described as follows: Critical micelle concentration from pyrene fluorescence. The format is physicochemical. Particulars: pyrene 100 μM. The protocol: Critical micelle concentration (CMC) value of the trCLN3-L4 motif was further confirmed by internalizing pyrene into the hydrophobic-lipid core of the micellar aggregate followed by measuring the fluorescence of pyrene-loaded trCLN3-L4 nanoconstructs at different concentrations. For this experiment a fixed amount of pyrene in acetone was transferred to an empty tube and acetone was allowed to evaporate in the dark at 45° C. for 30 min using an Eppendorf concentrator. trCLN3-L4 solutions in the concentration range between 0.0005-0.5 mg/ml were then added to yield a final pyrene concentration fixed at 100 μM for all reactions (Table 3). The solutions were incubated at 90° C. for 10 minutes in the dark and slowly cooled down to room temperature overnight at a rate of 1° C./10 min in order to internalize pyrene into the hydrophobic lipid core. The pyrene-loaded trCLN3-L4 nanoconstructs were transferred into a 384-multi well plate and the fluorescence emission spectrum of each well was recorded at room temperature by using an excitation wave length of 339 nm in an EnSpire® Multimode Plate Reader (PerkinElmer).
In close proximity, two pyrene molecules form an excimer that emits fluorescence at a longer wavelength compared to the monomer emission. The formed excimer is a dimeric complex where one molecule exists in an excited state and the other molecule in a ground state. Monomer emission of pyrene occurs within a range of 360-400 nm whereas the excimer emission is obtained within the wavelength limit of 465-500 nm. The critical micelle concentration was determined by the distinguishable pyrene excimer fluorescence of the corresponding DNA concentration. See G. Uddin G et al., Am. J. Biochem. Mol. Biol. 2013, 3, 175-181; which reference is incorporated herein in its entirety.

Series [4] is described as follows: Serum stability in PBS-buffered fetal calf serum (PAGE of 32P-labeled aptamer). It is filed as in vitro ADME. The settings on record: 10% PBS-buffered FCS, 37° C., 0 to 72 h. The protocol:
Serum stabilities of trCLN3, its two point mutant non-binding variant trCLN3.mut and their corresponding lipid-functionalized derivatives trCLN3-L4 and trCLN3.mut-L4 were investigated in fetal calf serum (FCS) and human blood serum. For this purpose, the aptamer motifs were labeled at their 5′-end with ^32P to form radiolabeled oligonucleotides. The degradation tests of all the aptamer motifs were performed for 60-72 h at 37°° C. 6 pmol (12 μl of 0.5 μM) of the radio-labeled aptamer (5′-end-labeled with γ-^32P) was incubated in a volume of 300 μl freshly thawed PBS-buffered FCS or human blood serum (270 μl serum+30 μl 10×PBS). For each measurement, 10 μl of the samples were removed, mixed with 90 μl of gel loading buffer (80% formamide+5 mM EDTA+0.01% SDS) and subsequently stored at −20° C. Aliquots of samples were taken after indicated time intervals of 0, 0.3, 1.5, 3, 6, 24, 48, 60 and 72h respectively. The serum stability of the aptamer in FCS or in HBS at different time intervals were analyzed on a denaturing PAGE by loading 10 μl of each sample onto a 10% TAE-Urea gel and running the gels for 90 minutes at 350 V. Gels were wrapped in clingfilm and exposed to a phosphorimager screen in a closed cassette over a period of 12 h and finally the residual intact aptamer bands were analyzed by scanning the screen in a phosphorimage-scanner (FujiFilm FLA 3000). Intensities of the residual intact aptamer bands were calculated applying AIDA image analyzer software program. Serums half-lives of the selected aptamers were determined by using a half-life curve-fitting data analysis program (GraphPad Prism).

T1 sequence (P08581 25-932 limits assumed): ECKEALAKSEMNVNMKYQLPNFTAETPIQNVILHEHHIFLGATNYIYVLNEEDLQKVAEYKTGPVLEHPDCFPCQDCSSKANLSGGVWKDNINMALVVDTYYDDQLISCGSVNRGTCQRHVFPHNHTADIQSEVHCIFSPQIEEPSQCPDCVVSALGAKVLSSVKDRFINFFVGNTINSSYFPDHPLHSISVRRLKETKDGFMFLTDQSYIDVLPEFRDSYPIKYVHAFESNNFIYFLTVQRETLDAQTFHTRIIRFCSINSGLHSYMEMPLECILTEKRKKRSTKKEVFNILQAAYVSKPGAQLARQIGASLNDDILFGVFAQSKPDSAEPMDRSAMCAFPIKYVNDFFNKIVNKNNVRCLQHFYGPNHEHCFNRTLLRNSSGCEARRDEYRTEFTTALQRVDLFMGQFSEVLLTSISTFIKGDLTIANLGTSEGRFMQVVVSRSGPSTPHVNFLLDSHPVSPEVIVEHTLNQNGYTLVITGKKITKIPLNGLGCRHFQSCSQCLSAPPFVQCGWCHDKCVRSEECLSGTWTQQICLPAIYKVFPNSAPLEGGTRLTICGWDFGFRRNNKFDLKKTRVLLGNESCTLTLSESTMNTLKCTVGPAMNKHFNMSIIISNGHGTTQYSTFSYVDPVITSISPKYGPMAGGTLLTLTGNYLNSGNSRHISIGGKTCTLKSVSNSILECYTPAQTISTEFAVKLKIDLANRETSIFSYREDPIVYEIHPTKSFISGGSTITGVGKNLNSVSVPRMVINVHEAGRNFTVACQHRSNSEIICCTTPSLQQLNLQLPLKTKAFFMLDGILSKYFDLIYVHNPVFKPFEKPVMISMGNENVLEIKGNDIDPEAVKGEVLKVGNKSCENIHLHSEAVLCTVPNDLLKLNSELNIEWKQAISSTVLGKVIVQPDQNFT

On to “trCLN3-L4: trCLN3 aptamer with four C12-lipid-modified dU residues at the 5′-end; self-assembles into micellar nanoconstructs (TGGATGGTAGCTCGGTCGGGGTGGGTGGGTTGGCAAGTCT; four 5' C12-lipid-modified dU residues, chemistry not fully specified)”, for which, in series [1], the IC50 amounted to 43 nM. The “size measured by TEM” value in series [2] is reported as 25 nm. Besides, the I475/I373 came to 0.20 in series [3] (trCLN3-L4 0.0005 mg/mL (0.035 μM)); 0.23 in series [3] (trCLN3-L4 0.001 mg/mL (0.07 μM)); 0.72 in series [3] (trCLN3-L4 0.0025 mg/mL (0.175 μM)); 1.98 in series [3] (trCLN3-L4 0.005 mg/mL (0.35 μM)); 1.57 in series [3] (trCLN3-L4 0.01 mg/mL (0.7 μM)); 2.49 in series [3] (trCLN3-L4 0.025 mg/mL (1.75 μM)). The I475/I373 in series [3] (trCLN3-L4 0.05 mg/mL (3.5 μM)) is recorded as 4.69; in series [3] (trCLN3-L4 0.1 mg/mL (7.0 μM)), 5.13; in series [3] (trCLN3-L4 0.25 mg/mL (17.4 μM)), 6.90; in series [3] (trCLN3-L4 0.5 mg/mL (35 μM)) it was 7.83. Besides, the “serum half-life (t1/2)” value in series [4] is on record as “no significant degradation even up to 72 h”.

Broadly, the IC50 is the midpoint of a concentration-inhibition curve. Higher therefore signals weaker potency in that assay.
